# Source: ChEMBL document CHEMBL1201862, “PubChem BioAssay data set” (2004)
#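 Following 48 hours of exposure in 96-well plates, responses at five concentrations were used to interpolate endpoints linearly. GI50 = concentration required for 50% inhibition of growth.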 The source made the active and inactive calls. No stated cut-off is given here; in the data, active = GI50 up to about 1.1 µM and inactive = higher.
# How the values were obtained:
# Test in all cases: NCI tumour cell line growth inhibition, 48 h
# [1] = tested on: SR
# [2] = tested on: OVCAR-4
# [3] = tested on: 786-0
# [4] = tested on: HOP-62
# [5] = tested on: SK-MEL-28
# [6] = tested on: HCT-15
# [7] = tested on: T47D
# [8] = tested on: SN12C
# [9] = tested on: MDA-MB-435
# [10] = tested on: SF-295
# [11] = tested on: Malme-3M
# [12] = tested on: KM12
# [13] = tested on: SNB-19
# [14] = tested on: OVCAR-3
# [15] = tested on: A549
# [16] = tested on: ACHN
# [17] = tested on: IGROV-1
# [18] = tested on: MDA-N
# [19] = tested on: COLO 205
# [20] = tested on: PC-3
# [21] = tested on: MDA-MB-231
# [22] = tested on: UACC-62
# [23] = tested on: NCI-H23
# [24] = tested on: DU-145
# [25] = tested on: HCC 2998
# [26] = tested on: BT-549
# [27] = tested on: CAKI-1
# [28] = tested on: CCRF-CEM
# [29] = tested on: HL-60
# [30] = tested on: NCI-H226
# [31] = tested on: SNB-75
# [32] = tested on: U-251
# [33] = tested on: A498
# [34] = tested on: MOLT-4
# [35] = tested on: NCI-H460
# [36] = tested on: SF-539
# [37] = tested on: RPMI-8226
# [38] = tested on: SW-620
# [39] = tested on: Hs-578T
# [40] = tested on: OVCAR-5
# [41] = tested on: M14
# [42] = tested on: UACC-257
# [43] = tested on: OVCAR-8
# [44] = tested on: HOP-92
# [45] = tested on: RXF 393
# [46] = tested on: HT-29
# [47] = tested on: SK-MEL-2
# [48] = tested on: HCT-116
# [49] = tested on: SK-OV-3
# [50] = tested on: UO-31
# [51] = tested on: EKVX
# [52] = tested on: MCF7
# [53] = tested on: TK-10
# [54] = tested on: K562
# [55] = tested on: NCI/ADR-RES
# [56] = tested on: NCI-H522
# [57] = tested on: SK-MEL-5
# [58] = tested on: SF-268
# [59] = tested on: LOX IMVI
smiles,measurement,setting,value
N#Cc1nc(Sc2cnsn2)c(Sc2cnsn2)nc1C#N,GI50,[1],8.91 µM (inactive)
same,GI50,[2],21.7 µM (inactive)
same,GI50,[3],6.78 µM (inactive)
same,GI50,[4],18.7 µM (inactive)
same,GI50,[5],22.6 µM (inactive)
same,GI50,[6],6.68 µM
same,GI50,[7],6.25 µM (inactive)
same,GI50,[8],21.4 µM (inactive)
same,GI50,[9],11.5 µM (inactive)
same,GI50,[10],16.6 µM (inactive)
same,GI50,[11],4.81 µM (inactive)
same,GI50,[12],20.7 µM (inactive)
same,GI50,[13],30 µM (inactive)
same,GI50,[14],6.79 µM (inactive)
same,GI50,[15],28.6 µM (inactive)
same,GI50,[16],7.1 µM (inactive)
same,GI50,[17],18.5 µM (inactive)
same,GI50,[18],20.4 µM (inactive)
same,GI50,[19],3.85 µM (inactive)
same,GI50,[20],21.6 µM (inactive)
same,GI50,[21],23.9 µM (inactive)
same,GI50,[22],17.6 µM (inactive)
same,GI50,[23],21.6 µM (inactive)
same,GI50,[24],17.1 µM (inactive)
same,GI50,[25],18.7 µM (inactive)
same,GI50,[26],21.4 µM (inactive)
same,GI50,[27],6.47 µM (inactive)
same,GI50,[28],0.426 µM (active)
same,GI50,[29],1.95 µM (inactive)
same,GI50,[30],19.9 µM (inactive)
same,GI50,[31],22.9 µM (inactive)
same,GI50,[32],29.4 µM (inactive)
same,GI50,[33],21.8 µM (inactive)
same,GI50,[34],2.65 µM (inactive)
same,GI50,[35],24.6 µM (inactive)
same,GI50,[36],19.4 µM (inactive)
same,GI50,[37],3.5 µM (inactive)
same,GI50,[38],2.25 µM (inactive)
same,GI50,[39],19.1 µM (inactive)
same,GI50,[40],18.9 µM (inactive)
same,GI50,[41],20.4 µM (inactive)
same,GI50,[42],13.6 µM (inactive)
same,GI50,[43],24.5 µM (inactive)
same,GI50,[44],20 µM (inactive)
same,GI50,[45],5.94 µM (inactive)
same,GI50,[46],20.6 µM (inactive)
same,GI50,[47],21.2 µM (inactive)
same,GI50,[48],6.65 µM (inactive)
same,GI50,[49],17.9 µM (inactive)
same,GI50,[50],9.44 µM (inactive)
same,GI50,[51],10.4 µM (inactive)
same,GI50,[52],21.9 µM (inactive)
same,GI50,[53],5.12 µM (inactive)
same,GI50,[54],2.9 µM (inactive)
same,GI50,[55],22.8 µM (inactive)
same,GI50,[56],3.93 µM (inactive)
same,GI50,[57],14.9 µM (inactive)
same,GI50,[58],19.4 µM (inactive)
same,GI50,[59],17.9 µM (inactive)
O=S(=O)(N/C(=N\O)Nc1ccc(Cl)cc1)c1ccccc1,GI50,[1],1.15 µM (inactive)
same,GI50,[2],2.33 µM (inactive)
same,GI50,[3],1.87 µM (inactive)
same,GI50,[4],44.8 µM (inactive)
same,GI50,[5],10.9 µM (inactive)
same,GI50,[6],7.66 µM
same,GI50,[7],2.74 µM (inactive)
same,GI50,[8],11.7 µM (inactive)
same,GI50,[9],9.23 µM (inactive)
same,GI50,[10],36.6 µM (inactive)
same,GI50,[11],4.34 µM (inactive)
same,GI50,[12],24.2 µM (inactive)
same,GI50,[13],22.8 µM (inactive)
same,GI50,[14],1.23 µM (inactive)
same,GI50,[15],21.2 µM (inactive)
same,GI50,[16],12.2 µM (inactive)
same,GI50,[17],10.5 µM (inactive)
same,GI50,[18],3.9 µM (inactive)
same,GI50,[19],20.4 µM (inactive)
same,GI50,[20],13.3 µM (inactive)
same,GI50,[21],29.5 µM (inactive)
same,GI50,[22],14.6 µM (inactive)
same,GI50,[23],16.2 µM (inactive)
same,GI50,[24],18.5 µM (inactive)
same,GI50,[25],7.1 µM (inactive)
same,GI50,[26],12.6 µM (inactive)
same,GI50,[27],2.07 µM (inactive)
same,GI50,[28],33.9 µM (inactive)
same,GI50,[29],4.99 µM (inactive)
same,GI50,[30],33.7 µM (inactive)
same,GI50,[31],1.71 µM (inactive)
same,GI50,[32],19.5 µM (inactive)
same,GI50,[33],6.67 µM (inactive)
same,GI50,[34],3.23 µM (inactive)
same,GI50,[35],13.4 µM (inactive)
same,GI50,[36],4.22 µM (inactive)
same,GI50,[37],4.13 µM (inactive)
same,GI50,[38],10 µM (inactive)
same,GI50,[39],6.46 µM (inactive)
same,GI50,[40],14.5 µM (inactive)
same,GI50,[41],12.7 µM (inactive)
same,GI50,[42],10.5 µM (inactive)
same,GI50,[43],10.2 µM (inactive)
same,GI50,[44],2.94 µM (inactive)
same,GI50,[45],2.77 µM (inactive)
same,GI50,[46],16.1 µM (inactive)
same,GI50,[47],11.6 µM (inactive)
same,GI50,[48],10.7 µM (inactive)
same,GI50,[49],27.9 µM (inactive)
same,GI50,[50],3.23 µM (inactive)
same,GI50,[51],10.3 µM (inactive)
same,GI50,[52],12.6 µM (inactive)
same,GI50,[53],14 µM (inactive)
same,GI50,[54],6.64 µM (inactive)
same,GI50,[55],12 µM (inactive)
same,GI50,[56],1.03 µM (active)
same,GI50,[57],9.04 µM (inactive)
same,GI50,[58],10.8 µM (inactive)
same,GI50,[59],13.4 µM (inactive)
